{"source": "patent US20250249001A1", "about": "“METHODS OF TREATING SUBSTANCE USE DISORDER WITH 4-(3-CYANOPHENYL)-6-PYRIDINYLPYRIMIDINE MGLU5 NEGATIVE ALLOSTERIC MODULATORS” (Tempero Bio, Inc., priority 2022, published 2025)", "key": {"[1]": {"system": "voluntary home-cage alcohol drinking by Wistar rats", "assay": "Home-cage two-bottle choice alcohol drinking, acute treatment", "format": "in vivo", "method": "Animals: Male Wistar rats (Charles River Laboratories, INC) were used in these studies. Rat housing and testing was conducted at the University of North Carolina at Chapel Hill (UNC-CH) School of Medicine in a state-of-the-art rodent vivarium approved by the Association for Assessment and Accreditation of Laboratory Animal Care International (AAALAC). Rat health was monitored daily by study investigators and veterinarians in the Division of Comparative Medicine UNC. All experimental procedures were carried out in accordance with the NIH Guide to Care and Use of Laboratory Animals (Committee for the Update of the Guide for the Care and Use of Laboratory Animals, 2011) and institutional guidelines.\nRats were housed individually in standard Plexiglas cages with standard rodent food and water available ad libitum. Upon arrival from the vendor, rats were given 7 days to acclimate to the vivarium during which they were weighed and handled by an investigator each day to monitor general health and habituate them to human contact. Rats were then weighed each day within 1-h of experimental procedures to calculate drug dosages relative to body weight. […] The colony was maintained at […] on a 12-hour light/dark cycle, with the lights on from 10 AM-10 PM. All behavioral experiments were conducted during the light portion of the light cycle.\n(§1) Home-cage alcohol drinking method. Oral alcohol and water intake were examined using a two-bottle choice protocol, which is standard in the field and commonly used in our laboratory. Male Wistar rats (n=12) were first adapted to drinking from a 50 ml conical tube fitted with a standard stainless-steel ball bearing sipper tube that limits spillage. Then, two bottles were place on the cage daily. One bottle contained an alcohol solution and the other contained water. Bottles containing fresh solutions were weighed daily before and after a 24 hr access period. After drug treatment, bottles were weighed after 1 hr and 24 hrs of access. Each week, rats had 4-5 days of sweetened alcohol and water available and the remaining days only water.\n(§2) Briefly, rats were first exposed to alcohol (10% v/v)+sucrose (5% w/v). versus water in the two bottles. Then, over a period of 6-weeks, the concentrations of alcohol and sucrose were gradually adjusted to alcohol (8% v/v)+sucrose (2% w/v) to achieve intake of pharmacologically relevant doses of alcohol. Rats were maintained at this concentration for the duration of the experiment for both acute (3.1.a) and chronic (3.1.b) home-cage drinking studies. Use of sweetened alcohol solutions in preclinical research provides face validity to the binge-intoxication stage of alcohol addiction in humans where sweeteners are commonly added to alcohol.\nCompound 1 treatment. After establishing baseline intake of sweetened alcohol and water, rats were habituated to i.p. injections. All rats (N=12) were administered 3 habituation injections of vehicle (10% w/v kolliphor in BCD (10%)) prior to the Compound 1 dose response curve and alcohol intake was measured. Then, the Compound 1 dose response curve was conducted with dose order randomized according to a modified Latin-Square design. Rats were given a minimum of 1-2 days between injections to ensure normal drinking was re-established in absence of drug administration. Each dose of Compound 1 (0-10 mg/kg) was administered via i.p. injection and rats were placed back in the home-cage for 1 hr prior to the return of sweetened alcohol and water. Alcohol intake was measured after 1-h and 24-hrs of access in grams by weighing the drinking bottles. Data were excluded from 1 rat that emptied both bottles fully each day without drinking the solutions; thus, results are presented for a final group of N=11 rats.\nEfficacy comparisons to MPEP and Naltrexone. […]"}, "[2]": {"system": "cue-induced reinstatement of alcohol-seeking behavior in Wistar rats", "assay": "Cue-induced reinstatement of alcohol-seeking behavior", "format": "in vivo", "conditions": "10 mg/kg IP", "text": "Operant alcohol self-administration training. Male Wistar rats (n=12) were trained to self-administer alcohol in two-lever operant conditioning chambers as described above. A total of n=11 rats completed the experiment. […] Fluid cups were inspected at the end of each session to verify intake. Extinction.\nCue-induced reinstatement test. On the next day, rats were given a reinstatement test in which lever press responses were followed by presentation of the cue light and auditory pump sound (as during training) but in the absence of ethanol reinforcement to examine cue-induced alcohol-seeking behavior (see Cue-induced reinstatement method FIG. 9A, right panel). One hour prior to the reinstatement session rats were divided into 2 equal subgroups groups and administered Compound 1 (0 or 10 mg/kg, IP) to determine if Compound 1 alters cue-induced reinstatement of alcohol-seeking behavior as compared to vehicle control. Groups were matched on body weight, baseline response totals, and extinction performance prior to drug testing. After this test, rats were returned to baseline conditions. […]"}, "[3]": {"system": "mGluR5", "conditions": "cited from earlier work"}, "[4]": {"system": "voluntary home-cage alcohol drinking by Wistar rats", "assay": "Home-cage alcohol drinking, repeated treatment (A-B-A design)", "format": "in vivo", "method": "as §1, §2\nRepeated treatment with Compound 1. To evaluate effects of repeated treatment with Compound 1 on home-cage alcohol drinking, baseline intake of sweetened alcohol and water, and habituation to i.p. injections was conducted as described above in a separate group of male Wistar rats (n=12). During habituation to i.p. injections, rats were moved to a 7 day per week alcohol access schedule to allow for chronic daily treatment. Rats were then administered vehicle (4 consecutive days), Compound 1 (3 mg/kg, 7 consecutive days), then vehicle (4 consecutive days) according to an A-B-A experimental design for a total of 15 days. Access to alcohol was provided 1-hr after vehicle or Compound 1 injection. Alcohol and water intake were measured as described above after 1-hr and 24-hrs of access."}}}
{"smiles": "N#Cc1cc(Cl)cc(-c2cc(-c3ccc(F)cn3)ncn2)c1", "note": "[Compound 1, 3-chloro-5-[6-(5-fluoropyridin-2-yl)pyrimidin-4-yl]benzonitrile]", "values": [{"measurement": "alcohol intake after 24-hrs of access vs vehicle", "setting": "[1]; 10 mg/kg i.p. acute", "result": "did not achieve statistical significance"}, {"measurement": "dosage giving the greatest reduction in EtOH intake", "setting": "[1]; 1-hr access, dose range 0-10 mg/kg i.p.", "result": 3, "unit": "mg/kg"}, {"measurement": "alcohol intake (EtOH g/kg/1-h) after 1-hr access vs vehicle control", "setting": "[1]; Compound 1 1, 3, and 10 mg/kg i.p. acute, 1 hr before access, sweetened alcohol, N=11", "result": "significantly decreased alcohol intake"}, {"measurement": "alcohol intake after 24-hrs of access vs vehicle", "setting": "[1]; Compound 1 1 and 3 mg/kg i.p. acute", "result": "significantly decreased alcohol intake"}, {"measurement": "alcohol intake at the 24-hr measurement interval, comparison of equivalent doses", "setting": "[1]; each drug 3 mg/kg i.p. acute", "result": "maintained efficacy"}, {"measurement": "alcohol drinking at 1-hr of access vs vehicle control, positive control comparison", "setting": "[1]; each drug 3 mg/kg i.p. acute, N=11", "result": "significantly decreased alcohol drinking"}, {"measurement": "cue-induced reinstatement, total responses on the previously active lever", "setting": "[2]; one hour prior to reinstatement session", "result": "blocked"}, {"measurement": "cue-induced reinstatement, responding relative to extinction performance", "setting": "[2]; vehicle ~400% of extinction level", "result": "fully blocked"}, {"measurement": "affinity for mGluR5", "setting": "[3]; following systemic administration in rats, mice, and primates", "result": "high affinity"}, {"measurement": "brain penetration", "setting": "[3]; systemic administration", "result": "brain penetrant"}, {"measurement": "H2O intake, 1-hr access, averaged across the 3 experimental phases", "setting": "[4]; 3 mg/kg i.p. daily for 7 days", "result": "decreased water intake"}, {"measurement": "H2O intake, 24-hrs access, averaged across the experimental phases", "setting": "[4]; 3 mg/kg i.p. daily for 7 days", "result": "reduction in H2O intake as compared to the first vehicle condition only"}, {"measurement": "alcohol intake, 24-hr access, averaged over each treatment condition", "setting": "[4]; 3 mg/kg i.p. daily for 7 days", "result": "no effect"}, {"measurement": "average alcohol intake over the 7-day treatment phase, 1-hr access, vs Veh-1 and Veh-2", "setting": "[4]; 3 mg/kg i.p. daily for 7 days", "result": "significantly decreased alcohol intake"}, {"measurement": "H2O intake, 1-hr access, individual treatment days", "setting": "[4]; 3 mg/kg i.p. daily, days 5-11", "result": "failed to identify a significant change at a particular treatment day"}, {"measurement": "H2O intake, 24-hrs access, individual treatment days", "setting": "[4]; 3 mg/kg i.p. daily, days 5-11", "result": "significant reductions in H2O intake at days 7 and 11"}, {"measurement": "alcohol intake, 1-hr access, individual treatment days vs day 4 vehicle", "setting": "[4]; 3 mg/kg i.p. daily, days 5-11", "result": "reduced alcohol intake only on day 5"}, {"measurement": "alcohol intake, 24-hr access, individual treatment days vs day 4 vehicle", "setting": "[4]; 3 mg/kg i.p. daily, days 5-11", "result": "reduced alcohol intake only on day 5"}]}
